Data reported in patent US20260284016A1, “COMBINATIONS AND METHODS FOR ENHANCING CHECKPOINT INHIBITOR THERAPIES IN CANCER TREATMENT” (PURDUE RESEARCH FOUNDATION, priority 2004, published 2026).

Experiments:
[1] = tested on: M2-induced THP-1 macrophages; assay: Secreted CCL18 and IL-1β in THP-1 supernatants by ELISA; assay type: cell-based, human; conditions: low concentration range (0.1-10 nM), ELISA
Procedure: FIGS. 6A-6D show graphical data representative of various marker levels measured from M2-induced THP-1 macrophages treated with different concentrations of drugs for 48 hours (FIGS. 6A and 6B) or for 2 hours, then displaced with fresh medium and cultured for the remaining 46 hours (FIGS. 6C and 6D). In both cases, cell supernatants were collected and secreted CCL18 protein and IL-1β was detected by ELISA.
Further, to ensure that the above mRNA analyses accurately reflected the levels of anti-inflammatory cytokines produced by IL-4, IL-6 plus IL-13 stimulated THP-1 cells, the concentrations of CCL18 and IL-1β polypeptides in the THP-1 supernatants were quantitated by ELISA assay.
CCL18 and IL-1β were quantified in induced THP-1 cell supernatants using a human DuoSet ELISA Development System (R&D Systems Europe, Abingdon, UK: #DY394-05) and an IL-1 beta Human ELISA Kit (Thermo Fisher Scientific, Waltham, MA; #BMS224-2) as described by manufactures. BALF samples were analyzed for mouse IFN-γ using ELISA MAX™ Deluxe (Biolegend, San Diego, CA; #430804).
Additionally, cell supernatants were collected and secreted CCL18 protein was detected by ELISA.

[2] = tested on: M2-induced THP-1 macrophages; assay: Reprogramming of M2-polarized THP-1 macrophages, marker mRNA by qPCR; assay type: cell-based, human; conditions: 2 hours with compound, qPCR
Procedure: THP-1 cells were seeded into 96-well plates at a density of 60,000 cells/well. Cells were differentiated into unpolarized macrophages by 48 hours incubation with 200 nM PMA followed by 24 hours incubation in fresh RPMI medium. […] Cultures were maintained at 37° C., in a humidified 5% CO2 incubator.
Total RNA was isolated from 1×10^5-2×10^5 macrophages using a Quick-RNA™ MicroPrep kit (Zymo Research, Irvine, CA) according to the manufacturer-recommended protocol. The RNA samples were then reverse-transcribed into cDNA using high-capacity cDNA reverse transcription kits (Applied Biosystems, Foster City, CA; #4368814), qPCR analyses were performed using the iTaq™ Universal SYBR Green SuperMix (Bio-Rad Laboratories GmbH, Hercules, CA; #1725121), iCycler thermocycler, and iCycler iQ 3.0 software (Bio-Rad Laboratories GmbH, Hercules, CA) to track the expression of markers characteristic of macrophage polarization states, IL-6, CXCL10, IFNα, IFN-γ and CD86 were used as markers for an M1 phenotype, while CCL18. CD206, CD163 and Arg1 were employed as markers for the M2 phenotype, IL-1β, PDGFβ, MMP9 and TIMP 3 were measured as indicators of an anti-inflammatory phenotype. IRAK-4 was used as an indicator of TLR7 stimulation. To control for specificity of the amplification products, a melting curve analysis was performed. […] Each sample was analyzed independently in triplicate for each marker.
In both data sets, the cells were harvested for gene analysis by qPCR.
Primarily, human monocytic (THP-1) cells were induced to the M2-like phenotype using the methods and materials previously described. In particular, THP-1 cells were seeded into 96-well plates at a density of 60,000 cells/well. Cells were differentiated into unpolarized macrophages by 48 h incubation with 200 nM PMA followed by 24 hours incubation in fresh RPMI medium. The resulting macrophages were polarized to an M2-like phenotype by incubation with […] IL-4, 20 ng/ml […], and 5 ng/mL IL-6 for 48h. Cultures were maintained at 37° C. in a humidified 5% CO2 incubator.
In addition to the nonconjugated TLR7 agonist, conjugated compounds of the present disclosure were likewise evaluated. Human THP-1 cells were induced to macrophages having the M2-like phenotype per the methods set forth herein (e.g., using 20 ng/mL IL-4, 20 ng/mL IL-13, 5 ng/mL IL-6), then reprogrammed with different nM concentrations of various compounds of the present disclosure for 2 hours; namely, a nonconjugated (free drug) TLR7 agonist compound having formula I and/or II (data shown collectively as Compound 3A), a folate-conjugated TLR7 agonist compound having formula XV (having a releasable linker) (e.g., Compound 3B), a folate-conjugated TLR7 agonist compound having formula XVII (having a non-releasable linker) (e.g., Compound 3C), and a folate-conjugated TLR7 agonist compound having formula XVI (having a non-releasable linker) (e.g., Compound 3D). The cells were subsequently harvested for gene analysis by qPCR and the relative expression of CCL18 (FIG. 14A), CD206 (FIG. 14B), and IL-1β (FIG. 14C) analyzed.

BM-induced mice = tested on: BM-induced mice
Procedure: Studies were also performed to determine if macrophages in pulmonary fibrotic lungs might be specifically targeted with folate-linked drugs in vivo. […] (The BM model is widely regarded to be helpful in terms of enabling mechanistic investigations relevant to fibrogenesis in an in vivo context.)
More specifically, eight-week-old C57BL6 male mice from Charles River (average weight 22 g to 25 g) were housed under pathogen-free conditions at room temperature (22° C.) under a 12 hours light-dark cycle. Mice were placed on a folate deficient chow (Envigo Teklad Global Rat Food Pellets) for 1 week prior to the BM or PBS instillation. Fresh water and folate-deficient diet were freely available. All animal procedures were approved by the Purdue Animal Care and Use Committee in accordance with National Institute of Health guidelines.
Thereafter, the mice were anesthetized with ketamine/xylazine and the necks of the mice were shaved using hair remover lotion and then sterilized with 70% alcohol. A small incision was made on the neck to visualize the trachea. Mice were positioned at a 75-degree angle and injected intratracheally with 100 μL sterile PBS or BM (Cayman Chemicals, Ann Arbor, MI; #13877) dissolved in PBS (0.75 mg/kg) using a 1 cc syringe with 26 G needle. Body weights were monitored every other day throughout the experiment.
Lobes of the right lung collected above were weighed, placed in a pressure-tight vial (Supelco Inc., Bellefonte, PA; #27003), and hydrolyzed with 6N HCl (10 ml/g, v/w) in a sand bath at 120° C., for 3.5 hours. The hydrolyzed solution was cooled at 4° C., for 15 min and transferred to a 1.5 ml Eppendorf tube prior to centrifugation at 12,000 rcf for 15 min at 4° C. Supernatant was carefully collected, aliquoted and used for hydroxyproline (HYP) analysis.
For the subsequent HYP analysis, 10 μl of sample was transferred into a 96-well plate and neutralized with 10 μl of 5.3 M sodium hydroxide solution. Isopropanol ([…]) was then added to each well followed by 20 μl of oxidation buffer and the mixture was incubated on a shaker at room temperature for 5 min. Analytical reagent (260 μl) was added, and the plate was incubated on a shaker at room temperature for 30 seconds and incubated immediately at 60° C., for 25 min. The absorbance was measured at 560 nm (A560) within 15 min. All reagents were prepared according to a previously reported protocol.
For histological analysis of the lung sections, fixed lungs (see above) were embedded in paraffin, sectioned and stained with hematoxylin-eosin (H&E), Masson's trichrome or F3 (anti-mouse FRβ antibody). Tissue sections were examined in a blinded manner by a licensed pathologist. More than 90×10^6 cells were quantified per section using Aperio-Image Scope (Leica Biosystems, Wetzlar, DE).
For this, BM-treated mice were intravenously injected every other day beginning on day 10 with either vehicle (3% DMSO in PBS) or Compound 1B (see FIG. 8A). […] In BM-induced experimental pulmonary fibrosis in mice, inflammation is known to persist for about 9-10 days after BM installation. Because, inflammation to fibrosis switch happens in this model approximately day 9 to day 14, and anti-inflammatory markers start appearing at about day 10, dosing began on day 10 (FIG. 8A).
Two doses were given every other day till day 21. The individual doses on a day are separated by 6 hours to prevent any “tolerance” to TLR agonists. Mice were then sacrificed on day 21 and subjected immediately to bronchoalveolar lavage followed by resection of the lungs for immunohistochemistry and quantitation of collagen and hydroxyproline.

[3] = tested on: FRβ-expressing macrophages; assay: In vivo folate imaging with OTL38, resected organs; set-up: species or system C57BL/6 mice
Procedure: (§1) To evaluate if anti-inflammatory lung macrophages in these mice can be specifically targeted with folate-linked drugs, 10 days after the instillation, 10 nmol (for in vivo imaging) or 100 nmol (for in vivo labeling) of a folate-linked, near infrared fluorescent dye (OTL38) with or without 200-fold excess of FA-glucosamine (a competitor of OTL38) was injected into the tail veins of BM-treated mice and the dye uptake in the major organs was evaluated.
(§2) Finally, for the in vivo folate imaging studies, major organs (heart, lung, spleen, liver, small intestine, large intestine, and kidney) were resected and imaged using an AMI live imager (Spectral Instruments Imaging, Tucson, AZ). For in vivo folate receptor labeling studies, lungs of the mice were harvested immediately following euthanasia, digested with a lung dissociation kit (Miltenyi Biotec, Bergisch Gladbach, DE; #130-098-427) as described by gentleMACS Octo Dissociator with Heathers (Miltenyi Biotec, Bergisch Gladbach, DE; #130-096-427) as described by manual and filtered through a 70 μm cell strainer (Miltenyi Biotec, Bergisch Gladbach, DE: #130-098-462). Cells collected in the filtrate were depleted of erythrocytes by ammonium sulfate lysis, washed 2× in cold PBS and labeled for 30 min on ice with antibodies to desired macrophage markers (FITC-CD11b, Biolegend, San Diego, CA; #101205; FE-F4/80. Biolegend. San Diego, CA: #123109). Labeled macrophages were then washed twice in PBS, stained with 7AAD (viability stain) for 15 min and analyzed by flow cytometry using BD Accuri C6 Software (BD Biosciences, San Jose, CA).
FIGS. 7C and 7D show FRβ IHC staining of human IPF lung tissue (FIG. 7C) and healthy human lung tissue (FIG. 7D). […] After 2 hours, mice were sacrificed prior to analysis. […] For in vivo folate receptor labeling studies, lungs of the mice were harvested immediately following euthanasia, digested and then labeled with antibodies to desired macrophages markers (FITC-CD11b, PE-F4/80) and 7AAD (live/dead staining) and analyzed by flow cytometry.

FRβ positive macrophages = assay: In vivo folate receptor labeling with OTL38, flow cytometry of digested lungs; set-up: species or system C57BL/6 mice; conditions: fibrotic mice
Procedure: as §1
as §2, with “Cells collected in the filtrate were depleted of erythrocytes by ammonium sulfate lysis, washed 2× in cold PBS and labeled for 30 min on ice with antibodies to desired macrophage markers (FITC-CD11b, Biolegend, San Diego, CA; #101205; FE-F4/80. Biolegend. San Diego, CA: #123109).” left out, “CA). […]” for “CA).”

Compound | secretion of CCL18 protein [1] | CCL18 relative expression [2] | CD206 relative expression [2] | IL-1β relative expression [2] | reduction of anti-inflammatory markers relative to the other compounds [2] | other results
Nc1nc(C(F)(F)F)cc2c1[nH]c(=O)n2Cc1ccc(NCCN2CCCC(CO)C2)nc1 (stereo not drawn) [Compound 3A] | downregulated | – | – | – | – | –
Nc1nc2ncc(CNc3ccc(C(=O)NC(CCC(=O)N[C@@H](CSSCCOC(=O)OCC4CCCN(CCNc5ccc(Cn6c(=O)[nH]c7c(N)nc(C(F)(F)F)cc76)cn5)C4)C(=O)O)C(=O)O)cc3)nc2c(=O)[nH]1 (stereo partly drawn) [Compound 3B] | downregulated | reduced | reduced | reduced | – | –
Nc1nc2ncc(CNc3ccc(C(=O)N[C@@H](CCC(=O)NCCOCCOCCOCCOCCOCCOCCOCCOCCOCCOCCOCCOCCOCC4CCCN(CCNc5ccc(Cn6c(=O)[nH]c7c(N)nc(C(F)(F)F)cc76)cn5)C4)C(=O)O)cc3)nc2c(=O)[nH]1 (stereo partly drawn) [Compound 3C] | downregulated | reduced | reduced | reduced | most effective | benefit to the subject mice (BM-induced mice; 3 nmol dosage): did not show measurable benefit; hydroxyproline (HP) (BM-induced mice; 10 nmol dosage): decreasing; number of BALF cells (BM-induced mice; 10 nmol dosage): decreasing; survival rates (BM-induced mice; 10 nmol dosage): increased the survival rates
Nc1nc2ncc(CNc3ccc(C(=O)N[C@@H](CCC(=O)NCCOCCOCCOCCOCC4CCCN(CCNc5ccc(Cn6c(=O)[nH]c7c(N)nc(C(F)(F)F)cc76)cn5)C4)C(=O)O)cc3)nc2c(=O)[nH]1 (stereo partly drawn) [Compound 3D] | downregulated | reduced | reduced | reduced | most effective | –
OTL38 | – | – | – | – | – | OTL38 accumulation in organs ([3]; BM-treated mice, day 10, 10 nmol tail vein, 2 h): pronounced accumulation in the fibrotic lungs; lung accumulation under competition ([3]; BM-treated mice, with 200-fold excess folate-glucosamine): nearly quantitative blockade of lung accumulation; OTL38 fluorescence in organs ([3]; healthy mice, 10 nmol tail vein, 2 h): only observed in the kidneys of healthy mice; macrophage-like cells with folate-targeted dye retention (FRβ positive macrophages; 100 nmol OTL38): about 22%; folate-dye retention under competition (FRβ positive macrophages; 100 nmol OTL38 with 200-fold excess folate-glucosamine): blocked essentially all folate-dye retention
